The values that follow come from patent publication US9023408B2, “Composition and method for control of diabetes” (Meyer Nutriceuticals LLC, priority 2009, dated 2015).

The structures appear in SMILES notation.

For series [1] the following is noted: human, in vivo. How it is done:
An additional gram of pellets was added to the dose; and the additional pellets had been surface-labeled with 99m-Tc-polymethylmethacrylate (these additional pellets could not release their contents), so that the positions of the pellets with time could be followed with a gamma camera. The releasing pellets also contained 5% (w/w) APAP which is rapidly and completely absorbed from small or large bowel, even in the presence of food. The APAP served as a pharmacokinetic marker. Subjects ate a free-choice meal at 241 min. Finally, PYY levels (see FIG. 4b) were followed on CTM and also on control days when four of the eight subjects shown in FIG. 4a consumed the standard breakfast at t=0 and a free choice lunch at t=241 min, but no pellets of CTM #3. Because lauric acid released from CTM #3 cannot be distinguished in plasma from dietary and endogenous lauric acid, assays of plasma PYY served as a surrogate for the release of bioactive lauric acid, which is known to be a potent stimulus of secretion of PYY and GLP-1 from L cells. To compare the time-courses of basal subtracted PYY measurements with those of APAP, analytical values for APAP were scaled up so that they equaled the peak PYY at 300 min.
From 240-300 minutes, the pellets began to empty from the ileum, so that by 300 min, there were few pellets in the small bowel, and the majority of pellets was now in the colon. […]

Another series relates to GLP-1. Briefly: Placebo-controlled double-blinded study in type 2 diabetes: plasma GLP-1. Also noted: species or system human. Particulars: in vivo. How it is done: FIGS. 6 and 7 depict the effect of CTM #3 versus placebo on blood glucose in a randomized, placebo-controlled, double-blinded study in 10 subjects with mild to moderate type 2 diabetes. After an overnight fast, subjects ingested 10 g of placebo pellets or CTM #3 pellets with the same standard breakfast as above (415 kcal; 71 g of carbohydrate) followed by a standard lunch at 240 min (708 kcal; 89 g of carbohydrate). […] The higher calorie lunch raised GLP-1s more than the breakfast on placebo days; and the CTM raised the post lunch GLP-1s even more. […] Using a similar calculation as used above for PYY, the per-calorie effectiveness of the lauric acid in CTM #3 in boosting the GLP-1 response to the meal was 77 times that of the calories in the breakfast.
For comparisons, the APAP levels have been scaled up so that their value equaled that of the GLP-1 peak at 270 min. […] The diabetic subjects were older than the normal subjects, and four of them had mild vagal neuropathy which might have contributed to slower gastric emptying. […]
The GLP-1 values (vertical axis) following the CTM treatment are expressed as a percent of the corresponding value at each time point following the placebo treatment, so that any value above the horizontal 100% line represents the effect of lauric acid released from the CTM #3. […]

Series [2] can be described thus: U.S.P. in vitro dissolution test (rotating basket). Particulars: uncoated cores of CTM #3.

As for `CCCCCCCCCCCC(=O)O` [lauric acid], the “duration of slow release from the dosage form after ingestion” value in series [1] lay in the range of 330 to 360 min. For the same molecule, the “per calorie potency relative to dietary nutrients in releasing GLP-1 and PYY” value in the series on GLP-1 is on record as 77-150 times. The “solubility in simulated bile (bile salts and lecithin) at pH 6.2” value in series [2] (pH 6.2) is recorded as “only half as soluble as maltose”. The “solubility compared with maltose, bile-free medium” value in series [2] (pH 6.2 1 h then pH 7.2 3 h) was “much less soluble than maltose”. The “solubility in simulated bile (bile salts and lecithin) at pH 7.2” value in series [2] (pH 7.2) is listed as “as soluble as maltose or APAP”.
